{
  "source": "ChEMBL document CHEMBL5154811",
  "about": "“Discovery of SPH5030, a Selective, Potent, and Irreversible Tyrosine Kinase Inhibitor for HER2-Amplified and HER2-Mutant Cancer Treatment” (J Med Chem, 2022)",
  "key": {"[1]": {"assay": "Clearance in ICR mouse at 3 mg/kg, iv measured upto 1440 mins by LC/MS/MS analysis", "assay_type": "ADME, organism-based", "settings": "in vivo"}, "[2]": {"assay": "Cmax in ICR mouse at 10 mg/kg, po measured upto 1440 mins by LC/MS/MS analysis", "assay_type": "ADME, organism-based", "design": "dose 10 mg/kg, time < 1440 min, route po", "settings": "in vivo"}, "[3]": {"assay": "Volume of distribution at steady state in Sprague-Dawley rat at 3 mg/kg, iv measured upto 1440 mins by LC/MS/MS analysis", "assay_type": "ADME, organism-based", "settings": "in vivo, read-out: Vdss"}, "[4]": {"assay": "Cmax in cynomolgus monkey at 15 mg/kg, po measured upto 1440 mins by LC/MS/MS analysis", "assay_type": "ADME, organism-based, Macaca fascicularis", "design": "dose 15 mg/kg, time < 1440 min, route po", "settings": "in vivo"}, "[5]": {"system": "BaF3", "assay": "Antitumor activity against mouse BaF3 cells harbouring HER2 A775_G776insYVMA mutant xenografted in BALB/c nude mouse assessed as tumor growth inhibition by measuring relative tumor growth at 40 mg/kg, po qd for 13 days by caliper method relative to control", "assay_type": "functional", "settings": "time 13 day"}, "[6]": {"system": "BaF3", "assay": "Antitumor activity against mouse BaF3 cells harbouring HER2 A775_G776insYVMA mutant xenografted in BALB/c nude mouse assessed as tumor growth inhibition by measuring relative tumor growth at 20 mg/kg, po qd for 13 days by caliper method relative to control", "assay_type": "functional", "settings": "time 13 day"}, "[7]": {"system": "BT-474", "assay": "Antitumor activity against human BT-474 cells xenografted in BALB/c nude mouse assessed as tumor growth inhibition at 20 mg/kg/day, po administered once daily for 21 days relative to control", "assay_type": "functional", "settings": "BT-474, 504 h, time 21 day, read-out: TGI"}, "[8]": {"assay": "Oral bioavailability in cynomolgus monkey at 15 mg/kg measured upto 1440 mins by LC/MS/MS analysis", "assay_type": "ADME, organism-based, Macaca fascicularis", "settings": "in vivo"}, "[9]": {"assay": "Oral bioavailability in Sprague-Dawley rat at 10 mg/kg measured upto 1440 mins by LC/MS/MS analysis", "assay_type": "ADME, organism-based", "settings": "in vivo"}, "[10]": {"assay": "Half life in ICR mouse at 3 mg/kg, iv measured upto 1440 mins by LC/MS/MS analysis", "assay_type": "ADME, organism-based", "settings": "in vivo"}, "[11]": {"assay": "Oral bioavailability in ICR mouse at 10 mg/kg measured upto 1440 mins by LC/MS/MS analysis", "assay_type": "ADME, organism-based", "settings": "in vivo"}, "[12]": {"assay": "Toxicity in BALB/c nude mouse xenografted with human NCI-N87 cells assessed as reduction in body weight at 5 to 40 mg/kg, po administered once daily for 21 days", "assay_type": "organism-based", "settings": "in vivo, 504 h, dose 5-40 mg/kg, time 21 day"}, "[13]": {"assay": "AUC (0 to t) in cynomolgus monkey at 15 mg/kg, po measured upto 1440 mins by LC/MS/MS analysis", "assay_type": "ADME, organism-based, Macaca fascicularis", "design": "time < 1440 min, dose 15 mg/kg, route po", "settings": "in vivo"}, "[14]": {"assay": "Half life in cynomolgus monkey at 1 mg/kg, iv measured upto 1440 mins by LC/MS/MS analysis", "assay_type": "ADME, organism-based, Macaca fascicularis", "settings": "in vivo"}, "[15]": {"system": "NCI-N87", "assay": "Antitumor activity against human NCI-N87 cells xenografted in BALB/c nude mouse assessed as tumor growth inhibition by measuring relative tumor growth at 10 mg/kg/day, po administered once daily for 21 days by caliper method relative to control", "assay_type": "functional", "settings": "time 21 day"}, "[16]": {"system": "NCI-N87", "assay": "Antiproliferative activity against human NCI-N87 cells assessed as inhibition of cell growth incubated for 72 hrs by Celltiter-Glo assay", "assay_type": "functional, cell-based", "settings": "NCI-N87, 72 h"}, "[17]": {"assay": "Toxicity in BALB/c nude mouse xenografted with human BT-474 cells assessed as reduction in body weight at 5 to 40 mg/kg, po administered once daily for 21 days", "assay_type": "organism-based", "settings": "in vivo, 504 h, dose 5-40 mg/kg, time 21 day"}, "[18]": {"assay": "AUC (0 to t) in ICR mouse at 10 mg/kg, po measured upto 1440 mins by LC/MS/MS analysis", "assay_type": "ADME, organism-based", "design": "time < 1440 min, dose 10 mg/kg, route po", "settings": "in vivo"}, "[19]": {"system": "BaF3", "assay": "Antiproliferative activity against mouse BaF3 cells harbouring HER2 […] mutant assessed as inhibition of cell growth incubated for 72 hrs by Celltiter-Glo assay", "assay_type": "functional, cell-based", "settings": "BaF3, 72 h"}, "[20]": {"system": "SK-BR-3", "assay": "Antiproliferative activity against human SK-BR-3 cells overexpressing wild type HER2 assessed as cell growth inhibition incubated for 72 hrs by Celltiter-Glo assay", "assay_type": "functional, cell-based", "settings": "SK-BR-3, 72 h"}, "[21]": {"assay": "Half life in Sprague-Dawley rat at 10 mg/kg, po measured upto 1440 mins by LC/MS/MS analysis", "assay_type": "ADME, organism-based", "settings": "in vivo"}, "[22]": {"molecular_target": "Receptor tyrosine-protein kinase erbB-2 (Homo sapiens, UniProt P04626, V777L)", "sequence (P04626 23-1255 V777L limits assumed)": "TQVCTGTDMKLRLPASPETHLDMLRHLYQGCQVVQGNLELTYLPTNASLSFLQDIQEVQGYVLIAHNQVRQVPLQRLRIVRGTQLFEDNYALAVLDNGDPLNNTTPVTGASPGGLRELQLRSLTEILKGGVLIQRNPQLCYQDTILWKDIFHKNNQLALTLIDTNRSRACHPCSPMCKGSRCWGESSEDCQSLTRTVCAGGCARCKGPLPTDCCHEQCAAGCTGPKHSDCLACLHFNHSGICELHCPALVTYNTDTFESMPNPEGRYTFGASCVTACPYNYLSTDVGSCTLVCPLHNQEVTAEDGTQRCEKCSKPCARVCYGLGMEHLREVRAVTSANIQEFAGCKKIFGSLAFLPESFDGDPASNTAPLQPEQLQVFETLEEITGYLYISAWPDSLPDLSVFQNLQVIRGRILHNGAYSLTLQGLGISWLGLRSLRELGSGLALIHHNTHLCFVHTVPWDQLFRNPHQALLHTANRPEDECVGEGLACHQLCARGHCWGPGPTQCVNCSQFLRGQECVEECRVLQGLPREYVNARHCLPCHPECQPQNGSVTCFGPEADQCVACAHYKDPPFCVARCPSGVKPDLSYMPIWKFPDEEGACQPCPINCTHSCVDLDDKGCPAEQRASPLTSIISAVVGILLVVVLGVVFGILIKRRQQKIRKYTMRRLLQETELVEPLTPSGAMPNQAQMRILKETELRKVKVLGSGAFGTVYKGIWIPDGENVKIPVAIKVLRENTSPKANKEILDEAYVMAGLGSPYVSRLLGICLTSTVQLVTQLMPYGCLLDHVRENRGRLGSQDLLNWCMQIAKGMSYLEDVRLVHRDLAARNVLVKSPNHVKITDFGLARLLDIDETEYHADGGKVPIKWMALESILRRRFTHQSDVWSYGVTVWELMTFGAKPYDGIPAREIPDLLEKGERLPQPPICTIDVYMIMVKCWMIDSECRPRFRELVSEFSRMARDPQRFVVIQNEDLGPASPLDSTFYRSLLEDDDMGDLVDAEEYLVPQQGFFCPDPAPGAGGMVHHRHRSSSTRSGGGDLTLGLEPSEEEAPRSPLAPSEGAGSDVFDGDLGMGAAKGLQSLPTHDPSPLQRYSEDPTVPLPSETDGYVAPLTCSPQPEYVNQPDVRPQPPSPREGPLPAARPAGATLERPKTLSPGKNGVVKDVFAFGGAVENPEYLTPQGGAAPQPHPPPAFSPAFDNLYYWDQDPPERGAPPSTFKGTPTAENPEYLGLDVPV", "assay": "Inhibition of HER2 V777L mutant (unknown origin) incubated for 120 mins in presence of 33P-ATP by P81 ion exchange cellulose chromatography"}, "[23]": {"system": "MDA-MB-468", "assay": "Antiproliferative activity against human MDA-MB-468 cells overexpressing wild type EGFR assessed as cell growth inhibition incubated for 72 hrs by Celltiter-Glo assay", "assay_type": "functional, cell-based", "settings": "MDA-MB-468, 72 h"}, "[24]": {"system": "NUGC-4", "assay": "Antiproliferative activity against human NUGC-4 cells assessed as cell growth inhibition incubated for 72 hrs by Celltiter-Glo assay", "assay_type": "functional, cell-based", "settings": "NUGC-4, 72 h"}, "[25]": {"system": "BaF3", "assay": "Antitumor activity against mouse BaF3 cells harbouring HER2 A775_G776insYVMA xenografted in BALB/c nude mouse assessed as tumor growth inhibition at 10 mg/kg/day, po qd measured for 13 days relative to control", "assay_type": "functional", "settings": "BaF3, 312 h, time 13 day, read-out: TGI"}, "[26]": {"system": "NCI-N87", "assay": "Antitumor activity against human NCI-N87 cells xenografted in BALB/c nude mouse assessed as tumor growth inhibition by measuring relative tumor growth at 5 mg/kg/day, po administered once daily for 21 days by caliper method relative to control", "assay_type": "functional", "settings": "time 21 day"}, "[27]": {"system": "MFE-280", "assay": "Antiproliferative activity against human MFE-280 cells assessed as cell growth inhibition incubated for 72 hrs by Celltiter-Glo assay", "assay_type": "functional, cell-based", "settings": "MFE-280, 72 h"}, "[28]": {"system": "BT-474", "assay": "Antiproliferative activity against human BT-474 cells assessed as inhibition of cell growth incubated for 72 hrs by Celltiter-Glo assay", "assay_type": "functional, cell-based", "settings": "BT-474, 72 h"}, "[29]": {"assay": "Toxicity in BALB/c nude mouse xenografted with mouse BaF3 cells harbouring HER2 A775_G776insYVMA mutant assessed as reduction in body weight at 10 to 40 mg/kg, po qd for 13 days", "assay_type": "organism-based", "settings": "in vivo, 312 h, dose 10-40 mg/kg, time 13 day"}, "[30]": {"system": "NCI-H441", "assay": "Antiproliferative activity against human NCI-H441 cells assessed as cell growth inhibition incubated for 72 hrs by Celltiter-Glo assay", "assay_type": "functional, cell-based", "settings": "NCI-H441, 72 h"}, "[31]": {"system": "BT-474", "assay": "Antitumor activity against human BT-474 cells xenografted in BALB/c nude mouse assessed as tumor growth inhibition at 10 mg/kg/day, po administered once daily for 21 days relative to control", "assay_type": "functional", "settings": "BT-474, 504 h, time 21 day, read-out: TGI"}, "[32]": {"molecular_target": "Receptor tyrosine-protein kinase erbB-2 (Homo sapiens, UniProt P04626)", "sequence (P04626 whole entry)": "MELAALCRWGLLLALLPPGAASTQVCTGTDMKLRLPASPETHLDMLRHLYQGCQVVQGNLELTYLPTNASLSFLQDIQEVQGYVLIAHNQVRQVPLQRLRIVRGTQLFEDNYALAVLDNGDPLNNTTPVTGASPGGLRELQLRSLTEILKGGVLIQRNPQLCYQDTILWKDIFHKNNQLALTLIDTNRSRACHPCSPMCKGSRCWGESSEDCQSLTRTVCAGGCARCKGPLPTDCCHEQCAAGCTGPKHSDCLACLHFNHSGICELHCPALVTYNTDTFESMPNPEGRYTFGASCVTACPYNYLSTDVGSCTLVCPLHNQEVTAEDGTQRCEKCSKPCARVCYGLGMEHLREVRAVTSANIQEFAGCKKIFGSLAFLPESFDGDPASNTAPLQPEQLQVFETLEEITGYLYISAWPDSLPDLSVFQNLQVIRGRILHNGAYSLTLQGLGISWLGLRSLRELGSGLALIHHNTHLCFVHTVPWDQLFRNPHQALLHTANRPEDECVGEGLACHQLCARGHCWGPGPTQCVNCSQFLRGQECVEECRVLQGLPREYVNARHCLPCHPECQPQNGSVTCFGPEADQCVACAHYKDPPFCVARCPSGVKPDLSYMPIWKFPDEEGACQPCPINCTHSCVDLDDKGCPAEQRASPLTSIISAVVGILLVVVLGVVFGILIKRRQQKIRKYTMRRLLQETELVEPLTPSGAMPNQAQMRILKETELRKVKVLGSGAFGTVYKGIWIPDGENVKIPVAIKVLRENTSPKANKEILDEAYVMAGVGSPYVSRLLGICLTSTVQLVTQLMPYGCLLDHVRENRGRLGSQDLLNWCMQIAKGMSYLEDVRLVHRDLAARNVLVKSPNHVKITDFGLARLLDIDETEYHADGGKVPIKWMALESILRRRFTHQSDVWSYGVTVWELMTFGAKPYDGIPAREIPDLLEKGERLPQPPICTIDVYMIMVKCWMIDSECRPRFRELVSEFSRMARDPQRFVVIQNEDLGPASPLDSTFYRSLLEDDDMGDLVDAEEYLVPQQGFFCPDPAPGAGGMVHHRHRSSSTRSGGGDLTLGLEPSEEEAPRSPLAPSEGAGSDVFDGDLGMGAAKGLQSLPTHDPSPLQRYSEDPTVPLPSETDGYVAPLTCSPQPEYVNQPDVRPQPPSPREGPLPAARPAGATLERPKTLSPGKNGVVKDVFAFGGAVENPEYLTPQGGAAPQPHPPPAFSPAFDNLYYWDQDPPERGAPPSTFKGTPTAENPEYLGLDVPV", "assay": "Inhibition of wild type human GST-tagged HER2 (676 to end residues) expressed in baculovirus infected Sf9 cells incubated for 30 mins in presence of ATP by HTRF analysis"}, "[33]": {"system": "ES-2", "assay": "Antiproliferative activity against human ES2 cells assessed as cell growth inhibition incubated for 72 hrs by Celltiter-Glo assay", "assay_type": "functional, cell-based", "settings": "ES-2, 72 h"}, "[34]": {"system": "NCI-N87", "assay": "Antitumor activity against human NCI-N87 cells xenografted in BALB/c nude mouse assessed as tumor growth inhibition by measuring relative tumor growth at 20 mg/kg/day, po administered once daily for 21 days by caliper method relative to control", "assay_type": "functional", "settings": "time 21 day"}, "[35]": {"assay": "Metabolic stability in human liver microsomes assessed as intrinsic clearance at 1 uM preincubated for 5 mins followed by NADPH addition by LC-MS/MS analysis", "assay_type": "ADME, Microsome", "settings": "read-out: CLH"}},
  "data": [
    {"compound": "CCOc1cc2ncnc(Nc3ccc(Oc4cc5nncn5cn4)c(C)c3)c2cc1NC(=O)/C(F)=C/[C@H]1CCCN1C", "values": [
      {"measurement": "clearance", "setting": "[1]", "result": 11.7, "unit": "mL/min/kg"},
      {"measurement": "Cmax", "setting": "[2]", "result": 1900, "unit": "ng/mL"},
      {"measurement": "Vd", "setting": "[3]", "result": 3.55, "unit": "L/kg"},
      {"measurement": "Cmax", "setting": "[4]", "result": 790, "unit": "ng/mL"},
      {"measurement": "T/C", "setting": "[5]", "result": 2, "unit": "%"},
      {"measurement": "T/C", "setting": "[6]", "result": 6.89, "unit": "%"},
      {"measurement": "inhibition in vivo at 20 mg/kg/day", "setting": "[7]", "result": 123, "unit": "%"},
      {"measurement": "bioavailability", "setting": "[8]", "result": 43.4, "unit": "%"},
      {"measurement": "bioavailability", "setting": "[9]", "result": 71.3, "unit": "%"},
      {"measurement": "half-life", "setting": "[10]", "result": 226, "unit": "min"},
      {"measurement": "bioavailability", "setting": "[11]", "result": 87.7, "unit": "%"},
      {"measurement": "Activity", "setting": "[12]", "result": "Non-Toxic"},
      {"measurement": "AUC(0-t) at 24 h", "setting": "[13]", "result": 10400, "unit": "ng·h/mL"},
      {"measurement": "half-life", "setting": "[14]", "result": 448, "unit": "min"},
      {"measurement": "T/C", "setting": "[15]", "result": 2.6, "unit": "%"},
      {"measurement": "IC50", "setting": "[16]", "result": 1.09, "unit": "nM"},
      {"measurement": "Activity", "setting": "[17]", "result": "Non-Toxic"},
      {"measurement": "AUC(0-t) at 24 h", "setting": "[18]", "result": 13100, "unit": "ng·h/mL"},
      {"measurement": "IC50", "setting": "[19]", "result": 6.3, "unit": "nM"},
      {"measurement": "IC50", "setting": "[20]", "result": 20.1, "unit": "nM"},
      {"measurement": "half-life", "setting": "[21]", "result": 263, "unit": "min"},
      {"measurement": "IC50", "setting": "[22]", "result": 0.16, "unit": "nM"},
      {"measurement": "IC50", "setting": "[23]", "result": 2980, "unit": "nM"},
      {"measurement": "IC50", "setting": "[24]", "result": 1220, "unit": "nM"},
      {"measurement": "inhibition in vivo at 10 mg/kg/day", "setting": "[25]", "result": 95, "unit": "%"},
      {"measurement": "T/C", "setting": "[26]", "result": 5.26, "unit": "%"},
      {"measurement": "IC50", "setting": "[27]", "result": 3.97, "unit": "µM"},
      {"measurement": "IC50", "setting": "[28]", "result": 2.01, "unit": "nM"},
      {"measurement": "Activity", "setting": "[29]", "result": "Non-Toxic"},
      {"measurement": "IC50", "setting": "[30]", "result": 4.26, "unit": "µM"},
      {"measurement": "inhibition in vivo at 10 mg/kg/day", "setting": "[31]", "result": 123, "unit": "%"},
      {"measurement": "IC50", "setting": "[32]", "result": 3.51, "unit": "nM"},
      {"measurement": "IC50", "setting": "[33]", "result": 2720, "unit": "nM"},
      {"measurement": "T/C", "setting": "[34]", "result": 2.03, "unit": "%"},
      {"measurement": "microsomal CLint at 1 µM", "setting": "[35]", "result": 2.5, "unit": "µL/min/mg"}
    ]}
  ]
}
